From patent EP0515927A2, “Pradimicin antibiotics” (priority 1991, dated 1992)
Converted amounts (≈) assume the structure as drawn. Like-named read-outs stand apart in the source and are kept apart here.

Columns and labels:
C. albicans A9540 = test: In vivo efficacy against C. albicans A9540 systemic infection in mice; parameters: species or system male ICR mice; settings: single i.v. injection immediately after i.v. challenge; survivors on 20th day
Procedure: The in vivo efficacy of pradimicins was evaluated against C. albicans A9540 systemic infection in male ICR mice (20-24 g body weight). The pathogen was cultured for 18 hours at 28°C in YGP medium (yeast extract 0.2%, glucose 1.5%, peptone 0.5%, K2HP04 0.05% and MgS04 0.05%) and resuspended in saline. Mice were challenged intravenously with 10 times lethal dose of the pathogen. Immediately after the fungal challenge, groups of 5 mice received a single intravenous injection of pradimicin S or FS or N-methyl pradimicin S at various dose levels. Amphotericin B and Fluconazol were used as positive controls. The median protective dose (PDso) was determined from the number of surviving mice recorded on the 20th day after the fungal infection.

influenza virus A = test: In vitro antiviral activity, influenza virus A-MDCK cell system, dye-uptake assay (inhibition of viral cytopathic effect); type: cell-based; settings: 50% inhibition of cytopathic effect, 72 hours
Vero cells = settings: HSV-Vero cell, (TD50: 50% cytotoxicity without virus)
[1] = system: herpes simplex virus type I (HSV-1); settings: 72 h
various fungal organisms = test: In vitro antifungal activity, agar dilution method, Yeast Morphology agar with 1/15 M phosphate buffer (pH 7.0); type: cell-based; settings: summary in words (Table 7 is an image)
Procedure: The in vitro antifungal activity of pradimicins was determined by a conventional agar dilution method using Yeast Morphology agar containing 1/15 M phosphate buffer (pH 7.0).

[2] = Acute toxicity in mice after single i.v. administration; type: in vivo
Procedure: The acute toxicity of pradimicins S and FS and N-methyl pradimicin S was determined in mice after single administration (i.v.).

[3] = system: Madin Darby canine kidney (MDCK) cell; settings: Influenza virus-MDCK cell, (TD50: 50% cytotoxicity without virus)
[4] = mouse, in vivo, iv, read-out: LD50

Row | Compound | PD50 mg/kg (i.v.) (C. albicans A9540) [mg/kg] | ID50 (influenza virus A) [µg/mL] | ID50 (Vero cells) [µg/mL] | ID50 [1] [µg/mL] | in vitro antifungal activity (various fungal organisms) | LD50 [2, 4] [mg/kg] | ID50 [3] [µg/mL] | LD50 [2] [mg/kg]
1 | C[C@@H]1[C@H](O)[C@@H](C)/C=C/C=C/C=C/C=C/C=C/C=C/C=C/[C@H](O[C@@H]2O[C@H](C)[C@@H](O)[C@H](N)[C@@H]2O)C[C@@H]2O[C@](O)(C[C@@H](O)C[C@@H](O)[C@H](O)CC[C@@H](O)C[C@@H](O)CC(=O)O[C@H]1C)C[C@H](O)[C@H]2C(=O)O [Amphotericin B, reference compound] | 0.31 |  |  |  |  |  |  | 
2 | OC(Cn1cncn1)(Cn1cncn1)c1ccc(F)cc1F [Fluconazol, reference compound] | >50 |  |  |  |  |  |  | 
3 | NC(=O)c1ncn([C@@H]2O[C@H](CO)[C@@H](O)[C@H]2O)n1 [Ribavirin, reference compound] |  | 9.5 (≈ 38.9 µM) |  |  |  |  |  | 
4 | Nc1nc2c(ncn2COCCO)c(=O)[nH]1 [Acyclovir, reference compound] |  |  | >100 | 0.09 (≈ 0.4 µM) |  |  |  | 
5 | CN[C@@H]1[C@H](O[C@@H]2O[C@H](CO)[C@@H](O)[C@H](OS(=O)(=O)O)[C@H]2O)[C@@H](O)[C@H](O[C@H]2c3cc(C)c(C(=O)N[C@H](C)C(=O)O)c(O)c3-c3c(cc4c(c3O)C(=O)c3cc(OC)cc(O)c3C4=O)[C@@H]2O)O[C@@H]1C [Pradimicin S, pradimicin S] | 35 | 22 (≈ 23.1 µM) | >100 | >100 | activity against various fungal organisms | 244 | >100 | 
6 | N-methyl pradimicin S [BMY-29273] | 47 |  |  |  | activity against various fungal organisms |  |  | ≥ 424
7 | CN[C@@H]1[C@H](O[C@@H]2O[C@H](CO)[C@@H](O)[C@H](OS(=O)(=O)O)[C@H]2O)[C@@H](O)[C@H](O[C@H]2c3cc(C)c(C(=O)N[C@H](CO)C(=O)O)c(O)c3-c3c(cc4c(c3O)C(=O)c3cc(OC)cc(O)c3C4=O)[C@@H]2O)O[C@@H]1C [Pradimicin FS, pradimicin FS] | 18 | 82 (≈ 84.8 µM) | >100 | >100 | activity against various fungal organisms | 210 | >100 | 
